# Values of other authors in patent US10328101B2, “Inactivation of papillomavirus” (priority 2001, dated 2019).
# Test system: bovine papillomavirus
# Conditions: iodine in the form of povidone-iodine; low concentrations (title of reference)
substance,measurement,value
povidone-iodine,treating viruses including bovine papillomavirus,effective
